Laboratory results as given in patent US11207379B2, “Peptides with anti-cancer activity” (IDP DISCOVERY PHARMA, S.L., priority 2016, dated 2021).
Numbered stars: 1 amine (or outer) side, 2 acyl side, 3 side chain; on linkers, the order of the positions; unused ones are H or OH. Bridge positions count the residues as written; N and C are the ends. Square brackets hold non-standard residues; d marks the D form. Peptide text beside a SMILES is read from it. ξ: configuration not given here. ξαMeNle(6-ylidene) = CC(CCCC=[*:3])(N[*:1])C(=O)[*:2]; X1 = CC(CCCCCCC=[*:3])(N[*:1])C(=O)[*:2]

Assay: Stability test in human plasma, 37 °C, UPLC-MS/MS
Type: in vitro ADME
Protocol: Reagents: ACN LC-MS (Scharlab AC03712500); MeOH LC-MS (Scharlab ME03262500); IPA LC-MS (Scharlab AL03262500); HCOOH (Carlo Erba 405792); DPBS (Lonza BE17-512F); human plasma with EDTAK2 as anticoagulant were provided by Centre d'Investigació de Medicaments located at the Hospital de la Santa Creu i Sant Pau, C/. Sant Antoni Maria Claret 167, Pavelló Sant Frederic, 08025 Barcelona. Plasma was extracted from a healthy patient on 1 Feb. 2015. It was kept at −20° C. until the experiment day.
A calibration curve of eight non-zero concentration levels (from P1 to P8) was prepared in a concentration interval from 5 to 100 μM for S09. One blank sample of DPBS was also included. All calibration samples were analysed in duplicate. Calibration standard samples were prepared by addition of 30 μL of each calibration solution (from P1 to P8 and blank) to 270 μL of human plasma. Samples for incubation were prepared adding 15 μL of 1 mM solution of S09 to 135 μL of human plasma (final concentration 100 μM). 15 samples were prepared. Samples were incubated at 37° C. for 0, 0.5, 2, 6 and 24 h (three replicates were prepared for each incubation time).
An aliquot of 125 μL human plasma sample (blank, calibration standards and incubation samples) were processed using Sirocco™ Protein Precipitation plates (Waters). 375 μL of ACN were added to each well of the Sirocco plate. Then the samples were filtered applying vacuum (8-10 mm Hg) for about 5 minutes. The filtrates were evaporated under a steady stream of nitrogen (40° C.) and reconstituted with 150 μL of MeOH:H2O 0.1% HCOOH for analysis. Samples were analyzed by UPLC(ACQUITY Ultra Performance LC-MS/MS(API 3000).
UPLC conditions (X-Bridge C18 column; Pump A: H2O with 0.1% formic acid; Pump B Acetonitrile with 0.1% formic acid) using a linear gradient 5%-95% of B in 8 minutes (R. T.=5.95). The mean (out of 3 experiments) of the normalized percentage integrated area corresponding to the peak of S09 at different time are reported in table 11 below.

% Remaining of active metabolyte (mean) (100 μM, incubation time 0 h): 0%
% Remaining of starting compound (mean) (100 μM, incubation time 0 h): 100%
% Remaining of active metabolyte (mean) (100 μM, incubation time 2 h): 0%
% Remaining of active metabolyte (mean) (100 μM, incubation time 6 h): 0%
% Remaining of active metabolyte (mean) (100 μM, incubation time 24 h): 0%
remaining at 2 h, 100 μM (human plasma (EDTA-K2), incubation time 2 h, read-out: % Remaining of starting compound (mean)): 106 ± 4.9%
remaining at 6 h, 100 μM (human plasma (EDTA-K2), incubation time 6 h, read-out: % Remaining of starting compound (mean)): 90 ± 16%
remaining at 24 h, 100 μM (human plasma (EDTA-K2), incubation time 24 h, read-out: % Remaining of starting compound (mean)): 97 ± 10%
Structure (SMILES): CC[C@H](C)[C@H](NC(=O)[C@H](Cc1ccc(O)cc1)NC(=O)[C@H](C)NC(=O)C1(C)CCCC=CCCCCCCC(C)(NC(=O)[C@H](CCCCN)NC(=O)[C@@H]2CCCN2C(=O)[C@H](C)N)C(=O)N[C@@H](C(C)C)C(=O)N[C@@H]([C@@H](C)CC)C(=O)N[C@@H](CC(C)C)C(=O)N[C@@H](CCCCN)C(=O)N[C@@H](CCCCN)C(=O)N[C@@H](C)C(=O)N1)C(=O)N[C@@H](CC(C)C)C(=O)N[C@@H](CO)C(=O)O (some centres unmarked) [IDP-S09, APKXVILKKAXAYILS-OH] (H-APK[X1]VILKKA[ξαMeNle(6-ylidene)]AYILS-OH; staple 4-11; N-terminus assumed)
